Test results reported in ChEMBL document CHEMBL1133568 (J Med Chem, 2000).
Calls of active or inactive are those of the source. The rule behind the calls is not given here.

How the values were obtained:
Oryctolagus cuniculus = species: Oryctolagus cuniculus; assay: Relative binding affinity against rabbit progesterone (PR) receptor after 24 hr incubation as perent binding compared to progesterone
[1] = target: T1, Glucocorticoid receptor (Rattus norvegicus) (UniProt P06536)
T1 sequence (whole entry): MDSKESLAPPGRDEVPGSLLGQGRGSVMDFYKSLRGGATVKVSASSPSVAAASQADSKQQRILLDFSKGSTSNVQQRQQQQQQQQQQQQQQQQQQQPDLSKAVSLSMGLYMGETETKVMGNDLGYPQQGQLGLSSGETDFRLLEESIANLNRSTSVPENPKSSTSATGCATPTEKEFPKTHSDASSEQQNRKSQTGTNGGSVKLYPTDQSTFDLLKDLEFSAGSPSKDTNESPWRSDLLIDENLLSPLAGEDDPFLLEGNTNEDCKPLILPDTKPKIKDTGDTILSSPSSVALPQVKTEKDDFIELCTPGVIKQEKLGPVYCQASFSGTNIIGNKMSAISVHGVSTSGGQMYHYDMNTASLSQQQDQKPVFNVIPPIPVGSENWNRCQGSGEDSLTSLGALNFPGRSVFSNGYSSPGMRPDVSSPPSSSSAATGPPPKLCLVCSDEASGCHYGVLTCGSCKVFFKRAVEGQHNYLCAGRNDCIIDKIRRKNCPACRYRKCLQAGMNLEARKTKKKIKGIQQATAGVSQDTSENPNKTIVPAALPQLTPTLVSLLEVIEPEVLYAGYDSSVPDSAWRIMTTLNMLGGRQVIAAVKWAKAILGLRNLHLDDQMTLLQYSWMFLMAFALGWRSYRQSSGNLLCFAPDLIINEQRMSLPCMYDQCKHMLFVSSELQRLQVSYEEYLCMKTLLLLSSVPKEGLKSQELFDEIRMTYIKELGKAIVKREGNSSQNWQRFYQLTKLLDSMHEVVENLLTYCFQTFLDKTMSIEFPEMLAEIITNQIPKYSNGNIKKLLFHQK
Description: Antiglucocorticoid activity in adrenalectomized young male rats after oral administration

[2] = target: T2, Progesterone receptor (Rattus norvegicus) (UniProt Q63449); assay: Incomplete abortifacient effect at 0.03 mg/animal/day in pregnant rats; type: functional
T2 sequence (whole entry): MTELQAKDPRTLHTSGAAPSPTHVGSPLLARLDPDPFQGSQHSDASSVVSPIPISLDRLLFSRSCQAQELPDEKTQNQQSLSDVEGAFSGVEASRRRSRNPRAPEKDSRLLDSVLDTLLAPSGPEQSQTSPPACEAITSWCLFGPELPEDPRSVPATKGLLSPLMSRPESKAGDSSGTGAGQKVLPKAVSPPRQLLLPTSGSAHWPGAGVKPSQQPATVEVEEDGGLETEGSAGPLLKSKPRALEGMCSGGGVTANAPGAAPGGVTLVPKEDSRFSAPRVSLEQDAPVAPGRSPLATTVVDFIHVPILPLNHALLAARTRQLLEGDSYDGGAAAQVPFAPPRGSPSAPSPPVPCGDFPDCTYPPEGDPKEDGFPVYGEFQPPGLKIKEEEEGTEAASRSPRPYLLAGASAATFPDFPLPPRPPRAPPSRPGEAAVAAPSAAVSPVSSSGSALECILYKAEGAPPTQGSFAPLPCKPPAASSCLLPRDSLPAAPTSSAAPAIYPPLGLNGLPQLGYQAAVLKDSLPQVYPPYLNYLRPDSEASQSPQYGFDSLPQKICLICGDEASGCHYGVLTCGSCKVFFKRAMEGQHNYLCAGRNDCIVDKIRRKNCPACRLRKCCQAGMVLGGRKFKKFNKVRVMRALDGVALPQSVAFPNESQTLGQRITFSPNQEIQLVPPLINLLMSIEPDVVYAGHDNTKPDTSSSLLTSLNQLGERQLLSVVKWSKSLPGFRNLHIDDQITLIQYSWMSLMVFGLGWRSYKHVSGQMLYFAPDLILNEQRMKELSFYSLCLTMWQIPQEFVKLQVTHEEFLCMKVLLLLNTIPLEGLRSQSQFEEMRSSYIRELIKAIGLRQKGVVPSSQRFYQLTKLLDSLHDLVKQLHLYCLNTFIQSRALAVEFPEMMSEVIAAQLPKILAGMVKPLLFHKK

Androgen receptor = target: T3, Androgen receptor (Homo sapiens, UniProt P10275); assay: In vitro antagonist potency in transactivation assay in CV-1 cells expressing androgen receptor; type: functional, cell-based
T3 sequence (P10275 whole entry): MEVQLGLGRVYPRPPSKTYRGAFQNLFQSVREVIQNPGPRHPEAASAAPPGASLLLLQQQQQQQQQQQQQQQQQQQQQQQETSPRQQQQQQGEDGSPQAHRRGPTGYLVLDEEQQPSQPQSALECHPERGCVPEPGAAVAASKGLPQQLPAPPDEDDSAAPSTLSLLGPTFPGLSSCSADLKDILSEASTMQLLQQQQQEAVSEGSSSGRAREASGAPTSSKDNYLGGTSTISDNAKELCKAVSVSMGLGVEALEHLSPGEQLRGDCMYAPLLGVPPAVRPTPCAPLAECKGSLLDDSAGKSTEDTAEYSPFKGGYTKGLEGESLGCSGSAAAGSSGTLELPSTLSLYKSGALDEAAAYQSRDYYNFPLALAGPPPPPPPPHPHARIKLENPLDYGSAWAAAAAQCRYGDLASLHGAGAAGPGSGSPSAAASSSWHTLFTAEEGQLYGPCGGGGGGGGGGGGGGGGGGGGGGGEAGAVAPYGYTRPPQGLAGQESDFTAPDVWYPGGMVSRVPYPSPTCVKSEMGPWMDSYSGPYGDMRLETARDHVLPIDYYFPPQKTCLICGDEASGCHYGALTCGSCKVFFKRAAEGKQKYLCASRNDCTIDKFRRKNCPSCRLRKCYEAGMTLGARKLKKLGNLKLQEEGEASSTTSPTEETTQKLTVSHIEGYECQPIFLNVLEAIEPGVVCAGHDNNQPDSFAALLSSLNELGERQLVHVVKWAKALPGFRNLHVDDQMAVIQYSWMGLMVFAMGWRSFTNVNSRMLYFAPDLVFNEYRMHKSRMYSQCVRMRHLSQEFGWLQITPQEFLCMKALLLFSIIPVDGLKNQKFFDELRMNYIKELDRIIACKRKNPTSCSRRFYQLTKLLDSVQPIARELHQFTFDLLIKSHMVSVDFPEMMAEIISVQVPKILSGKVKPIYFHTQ

Glucocorticoid receptor = target: T4, Glucocorticoid receptor (Mus musculus, UniProt P06537); assay: In vitro antagonist potency in transactivation assay in NIH3T3 cells expressing glucocorticoid receptor; type: functional, cell-based
T4 sequence (P06537 whole entry): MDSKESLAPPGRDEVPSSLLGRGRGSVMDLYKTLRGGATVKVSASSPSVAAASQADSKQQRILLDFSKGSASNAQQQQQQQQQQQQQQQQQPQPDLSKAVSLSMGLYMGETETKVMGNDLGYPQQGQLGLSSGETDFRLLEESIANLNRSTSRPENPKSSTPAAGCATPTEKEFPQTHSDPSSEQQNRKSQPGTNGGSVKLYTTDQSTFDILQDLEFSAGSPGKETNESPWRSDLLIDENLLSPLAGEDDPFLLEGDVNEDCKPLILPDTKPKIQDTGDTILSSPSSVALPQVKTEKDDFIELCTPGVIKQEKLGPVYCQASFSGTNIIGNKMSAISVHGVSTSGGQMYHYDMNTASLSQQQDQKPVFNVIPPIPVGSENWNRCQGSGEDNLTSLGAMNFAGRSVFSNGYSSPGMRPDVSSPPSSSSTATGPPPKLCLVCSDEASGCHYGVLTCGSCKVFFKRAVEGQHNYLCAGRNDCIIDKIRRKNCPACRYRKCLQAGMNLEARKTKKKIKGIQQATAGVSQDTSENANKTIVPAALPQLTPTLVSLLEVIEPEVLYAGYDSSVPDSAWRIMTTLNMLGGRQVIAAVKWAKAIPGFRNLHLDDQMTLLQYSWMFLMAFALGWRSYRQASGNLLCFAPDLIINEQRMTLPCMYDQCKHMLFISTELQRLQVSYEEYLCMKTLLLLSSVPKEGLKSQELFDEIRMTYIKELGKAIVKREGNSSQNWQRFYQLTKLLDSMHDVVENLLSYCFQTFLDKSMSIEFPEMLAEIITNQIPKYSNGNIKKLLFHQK

[3] = target: T2, Progesterone receptor (Rattus norvegicus); assay: Incomplete abortifacient effect at 0.3 mg/animal/day in pregnant rats; type: functional
[4] = target: T5, Androgen receptor (Rattus norvegicus) (UniProt P15207); assay: Relative binding affinity against androgen (AR) receptor of rat after 24 hr incubation as percent binding compared to R1881
T5 sequence (whole entry): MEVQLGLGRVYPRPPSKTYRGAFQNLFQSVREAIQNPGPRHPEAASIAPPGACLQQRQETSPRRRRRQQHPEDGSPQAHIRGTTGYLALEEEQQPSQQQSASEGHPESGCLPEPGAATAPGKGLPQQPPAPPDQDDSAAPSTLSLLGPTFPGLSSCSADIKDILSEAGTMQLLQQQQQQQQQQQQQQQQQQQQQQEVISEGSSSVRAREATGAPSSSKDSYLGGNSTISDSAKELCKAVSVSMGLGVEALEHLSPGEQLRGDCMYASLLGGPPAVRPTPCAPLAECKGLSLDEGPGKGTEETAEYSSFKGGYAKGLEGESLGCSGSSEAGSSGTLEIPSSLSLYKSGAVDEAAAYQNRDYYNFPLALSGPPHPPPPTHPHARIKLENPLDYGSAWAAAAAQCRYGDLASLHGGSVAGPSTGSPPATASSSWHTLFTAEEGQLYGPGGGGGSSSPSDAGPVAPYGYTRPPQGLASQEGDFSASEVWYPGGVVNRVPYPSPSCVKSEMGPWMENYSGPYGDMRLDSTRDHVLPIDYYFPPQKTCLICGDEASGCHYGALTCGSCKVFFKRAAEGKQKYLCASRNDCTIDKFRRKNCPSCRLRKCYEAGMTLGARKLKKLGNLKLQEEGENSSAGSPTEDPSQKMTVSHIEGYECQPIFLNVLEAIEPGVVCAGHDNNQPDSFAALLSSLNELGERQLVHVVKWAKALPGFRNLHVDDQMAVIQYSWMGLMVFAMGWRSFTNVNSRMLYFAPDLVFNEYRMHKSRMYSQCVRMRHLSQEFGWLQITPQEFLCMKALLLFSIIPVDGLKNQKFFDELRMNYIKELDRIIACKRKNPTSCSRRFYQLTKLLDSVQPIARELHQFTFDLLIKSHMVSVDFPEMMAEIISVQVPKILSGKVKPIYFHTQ

[5] = target: T1, Glucocorticoid receptor (Rattus norvegicus); assay: Relative binding affinity against Glucocorticoid receptor of rat after 2 hr incubation as percent binding compared to Dexamethasone
[6] = target: T5, Androgen receptor (Rattus norvegicus)
Description: Antiandrogenic activity in orchidectomized young male rats after oral administration

[7] = target: T2, Progesterone receptor (Rattus norvegicus); assay: Incomplete abortifacient effect at 0.1 mg/animal/day in pregnant rats; type: functional
Progesterone receptor [8] = target: T6, Progesterone receptor (Homo sapiens, UniProt P06401); assay: In vitro antagonist potency in transactivation assay in neuroblastoma cells expressing human PR-A progesterone receptor; type: functional, cell-based
T6 sequence (P06401 whole entry): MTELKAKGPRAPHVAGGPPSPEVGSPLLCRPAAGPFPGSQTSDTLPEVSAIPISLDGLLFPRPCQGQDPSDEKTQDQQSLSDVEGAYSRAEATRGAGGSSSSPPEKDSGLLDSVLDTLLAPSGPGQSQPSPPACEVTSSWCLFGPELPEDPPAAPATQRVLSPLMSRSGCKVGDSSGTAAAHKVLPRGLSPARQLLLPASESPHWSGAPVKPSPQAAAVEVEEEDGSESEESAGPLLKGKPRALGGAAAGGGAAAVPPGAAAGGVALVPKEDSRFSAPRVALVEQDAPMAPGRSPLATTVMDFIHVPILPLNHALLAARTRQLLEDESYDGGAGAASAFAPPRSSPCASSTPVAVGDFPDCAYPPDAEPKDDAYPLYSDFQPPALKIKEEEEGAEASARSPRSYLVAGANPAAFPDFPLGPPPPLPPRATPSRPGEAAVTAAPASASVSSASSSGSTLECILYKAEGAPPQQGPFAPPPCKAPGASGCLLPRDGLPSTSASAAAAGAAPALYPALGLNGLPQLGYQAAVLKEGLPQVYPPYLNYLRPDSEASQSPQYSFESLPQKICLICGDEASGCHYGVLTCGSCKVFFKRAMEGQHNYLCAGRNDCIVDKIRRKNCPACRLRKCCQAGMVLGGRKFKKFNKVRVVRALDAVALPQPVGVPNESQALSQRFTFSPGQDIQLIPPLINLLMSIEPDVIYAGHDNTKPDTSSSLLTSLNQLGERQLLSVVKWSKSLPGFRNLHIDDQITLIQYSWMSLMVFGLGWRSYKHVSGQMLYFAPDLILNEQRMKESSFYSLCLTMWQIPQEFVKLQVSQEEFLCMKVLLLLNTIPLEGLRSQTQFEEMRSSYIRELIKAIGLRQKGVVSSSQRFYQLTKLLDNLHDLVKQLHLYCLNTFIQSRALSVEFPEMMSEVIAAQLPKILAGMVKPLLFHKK

[9] = target: T2, Progesterone receptor (Rattus norvegicus); assay: Full abortifacient effect at 0.1 mg/animal/day in pregnant rats; type: functional
Progesterone receptor [10] = target: T6, Progesterone receptor; assay: In vitro antagonist potency in transactivation assay in neuroblastoma cells expressing human PR-B progesterone receptor; type: functional, cell-based
[11] = target: T2, Progesterone receptor (Rattus norvegicus); assay: Full abortifacient effect at 0.03 mg/animal/day in pregnant rats; type: functional
[12] = target: T2, Progesterone receptor (Rattus norvegicus); assay: Full abortifacient effect at 0.3 mg/animal/day in pregnant rats; type: functional
[13] = target: T7, Glucocorticoid receptor (Mus musculus) (UniProt P06537); conditions: NIH3T3
T7 sequence (whole entry): T4 sequence (P06537 whole entry)
Description: In vitro agonist potency in transactivation assay in NIH3T3 cells expressing glucocorticoid receptor; NE=no effect

[14] = target: T8, Progesterone receptor (Homo sapiens) (UniProt P06401)
T8 sequence (whole entry): T6 sequence (P06401 whole entry)

[15] = target: T8, Progesterone receptor (Homo sapiens); remark: listed apart in the source
Description: In vitro agonist potency in transactivation assay of neuroblastoma cells expressing human PR-B progesterone receptor; NE=no effect

SMILES | RBA (Oryctolagus cuniculus) [%] | ED50 mg/animal/day [1] | Abortion [2] [%] | IC50 (Androgen receptor) [nM] | IC50 (Glucocorticoid receptor) [nM] | Abortion [3] [%] | RBA [4] [%] | RBA [5] [%] | ED50 mg/animal/day [6] | Abortion [7] [%] | IC50 (Progesterone receptor [8]) [nM] | Abortion [9] [%] | IC50 (Progesterone receptor [10]) [nM] | Abortion [11] [%] | Abortion [12] [%] | NE [13] | NE [14] | NE [15]
CC(=O)c1ccc([C@H]2C[C@@]3(C)[C@@H](CC[C@@]3(O)C(F)(F)C(F)(F)F)[C@@H]3CCC4=CC(=O)CCC4=C32)cc1 [LONAPRISAN] | 140 | 2 | 0 | 54 | 16 | 0 | 3.1 | 22.2 | 1.3 | 17 | 0.0036 | 83 | 0.0025 | 0 | 100 | – | – | –
CC#C[C@]1(O)CC[C@H]2[C@@H]3CCC4=CC(=O)CCC4=C3[C@@H](c3ccc(N(C)C)cc3)C[C@@]21C [MIFEPRISTONE] | – | – | – | – | 2.2 | – | – | – | – | – | – | – | – | – | – | inactive | inactive | inactive
